Experimental data: article PMC9897788, “Design, synthesis and cytotoxic evaluation of novel bis-thiazole derivatives as preferential Pim1 kinase inhibitors with in vivo and in silico study” (Journal of Enzyme Inhibition and Medicinal Chemistry, 2023)

Assays:
[1] = tested on: Breast T47D cancer cell line; experiment: In vitro inhibition concentration of breast T47D cancer cell line; type: cell-based; conditions: Homo sapiens
Procedure: Cells were seeded and treated with a range of inhibitors concentration 39–10,000 nM after 24 h relative to DMSO. […]

LOX IMVI = experiment: NCI 60 cell one-dose screening (SRB); type: cell-based; conditions: Homo sapiens, Melanoma, single dose 10 µM, 48 h, read-out: Percentage of cellular growth inhibition
Procedure, shortened: (§1)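 Growth percentage, referenced to time-zero and drug-free wells and measured by SRB absorbance (515 nm), was subtracted from 100 to give inhibition. Cells had been pre-grown 24 h, then incubated 48 h at 37 °C, 5% CO2 with test compound at 10 µM final.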

COLO 205 = experiment: NCI 60 cell one-dose screening (SRB); type: cell-based; conditions: Homo sapiens; COLO 205, Colon Cancer; single dose 10 µM, 48 h; read-out: Percentage of cellular growth inhibition
Procedure, shortened: as §1

SK-OV-3 = experiment: NCI 60 cell one-dose screening (SRB); type: cell-based; conditions: Homo sapiens; SK-OV-3, Ovarian Cancer; single dose 10 µM, 48 h; read-out: Percentage of cellular growth inhibition
Procedure, shortened: as §1

NCI-H23 = experiment: NCI 60 cell one-dose screening (SRB); type: cell-based; conditions: Homo sapiens; NCI-H23, Non-Small Cell Lung Cancer; single dose 10 µM, 48 h; read-out: Percentage of cellular growth inhibition
Procedure, shortened: as §1

MCF7 = experiment: NCI 60 cell one-dose screening (SRB); type: cell-based; conditions: Homo sapiens; MCF7, Breast Cancer; single dose 10 µM, 48 h; read-out: Percentage of cellular growth inhibition
Procedure, shortened: as §1

SR = experiment: NCI 60 cell one-dose screening (SRB); type: cell-based; conditions: Homo sapiens, Leukemia, single dose 10 µM, 48 h, read-out: Percentage of cellular growth inhibition
Procedure, shortened: as §1

MDA-MB-468 = experiment: NCI 60 cell one-dose screening (SRB); type: cell-based; conditions: Homo sapiens; MDA-MB-468, Breast Cancer; single dose 10 µM, 48 h; read-out: Percentage of cellular growth inhibition
Procedure, shortened: as §1

RXF 393 = experiment: NCI 60 cell one-dose screening (SRB); type: cell-based; conditions: Homo sapiens; RXF 393, Renal Cancer; single dose 10 µM, 48 h; read-out: Percentage of cellular growth inhibition
Procedure, shortened: as §1

HS 578T = experiment: NCI 60 cell one-dose screening (SRB); type: cell-based; conditions: Homo sapiens, Breast Cancer, single dose 10 µM, 48 h, read-out: Percentage of cellular growth inhibition
Procedure, shortened: as §1

NCI-H522 = experiment: NCI 60 cell one-dose screening (SRB); type: cell-based; conditions: Homo sapiens; NCI-H522, Non-Small Cell Lung Cancer; single dose 10 µM, 48 h; read-out: Percentage of cellular growth inhibition
Procedure, shortened: as §1

T-47D = experiment: NCI 60 cell one-dose screening (SRB); type: cell-based; conditions: Homo sapiens, T47D, 48 h, Breast Cancer, single dose 10 µM, read-out: Percentage of cellular growth inhibition
Procedure, shortened: as §1

SF-295 = experiment: NCI 60 cell one-dose screening (SRB); type: cell-based; conditions: Homo sapiens; SF-295, CNS Cancer; single dose 10 µM, 48 h; read-out: Percentage of cellular growth inhibition
Procedure, shortened: as §1

NCI-H460 = experiment: NCI 60 cell one-dose screening (SRB); type: cell-based; conditions: Homo sapiens; NCI-H460, Non-Small Cell Lung Cancer; single dose 10 µM, 48 h; read-out: Percentage of cellular growth inhibition
Procedure, shortened: as §1

TK-10 = experiment: NCI 60 cell one-dose screening (SRB); type: cell-based; conditions: Homo sapiens; TK-10, Renal Cancer; single dose 10 µM, 48 h; read-out: Percentage of cellular growth inhibition
Procedure, shortened: as §1

MDA-MB-435 = experiment: NCI 60 cell one-dose screening (SRB); type: cell-based; conditions: Homo sapiens; MDA-MB-435, Melanoma; single dose 10 µM, 48 h; read-out: Percentage of cellular growth inhibition
Procedure, shortened: as §1

SK-MEL-5 = experiment: NCI 60 cell one-dose screening (SRB); type: cell-based; conditions: Homo sapiens; SK-MEL-5, Melanoma; single dose 10 µM, 48 h; read-out: Percentage of cellular growth inhibition
Procedure, shortened: as §1

OVCAR-3 = experiment: NCI 60 cell one-dose screening (SRB); type: cell-based; conditions: Homo sapiens; OVCAR-3, Ovarian Cancer; single dose 10 µM, 48 h; read-out: Percentage of cellular growth inhibition
Procedure, shortened: as §1

SK-MEL-2 = experiment: NCI 60 cell one-dose screening (SRB); type: cell-based; conditions: Homo sapiens; SK-MEL-2, Melanoma; single dose 10 µM, 48 h; read-out: Percentage of cellular growth inhibition
Procedure, shortened: as §1

| Compound | IC50 ([1]; 48 h) [µM] | IC50 ([1]; 96 h) [µM] | inhibition at 10 µM (LOX IMVI) [%] | inhibition at 10 µM (COLO 205) [%] | inhibition at 10 µM (SK-OV-3) [%] | inhibition at 10 µM (NCI-H23) [%] | inhibition at 10 µM (MCF7) [%] | inhibition at 10 µM (SR) [%] | inhibition at 10 µM (MDA-MB-468) [%] | inhibition at 10 µM (RXF 393) [%] | inhibition at 10 µM (HS 578T) [%] | inhibition at 10 µM (NCI-H522) [%] | inhibition at 10 µM (T-47D) [%] | inhibition at 10 µM (SF-295) [%] | inhibition at 10 µM (NCI-H460) [%] | inhibition at 10 µM (TK-10) [%] | inhibition at 10 µM (MDA-MB-435) [%] | inhibition at 10 µM (SK-MEL-5) [%] | melting point [°C] | further results |
| --- | --- | --- | --- | --- | --- | --- | --- | --- | --- | --- | --- | --- | --- | --- | --- | --- | --- | --- | --- | --- |
| Cc1csc(Nc2cccc(Nc3nc(C)cs3)c2)n1 [3a, N^1,N^3-bis(4-methylthiazol-2-yl)benzene-1,3-diamine] | 7.82 | 2.86 | 25.5 | -3.8 | 10.7 | 21.2 | 21.9 | 17.3 | 15.9 | 4.8 | 7.9 | 39.3 | 36.8 | 9.5 | 1.6 | -35 | 4 | 6.2 | 137 to 139 | – |
| CC(=O)c1sc(Nc2cccc(Nc3nc(C)c(C(C)=O)s3)c2)nc1C [3b, 1,1’-(2,2’-(1,3-Phenylenebis(azanediyl))bis(4-methylthiazole-5,2-diyl))diethanone] | 5.77 | 1.46 | 51.9 | 22.3 | 74.2 | 36.8 | 38.3 | 61.5 | 45 | 53 | 47.3 | 53.8 | – | 13.5 | 54.4 | 46.4 | 40.9 | 44.2 | – | – |
| CCOC(=O)c1sc(Nc2cccc(Nc3nc(C)c(C(=O)OCC)s3)c2)nc1C [3c, Diethyl 2,2’-(1,3-phenylenebis(azanediyl))bis(4-methylthiazole-5-carboxylate)] | – | – | 25.5 | 12.8 | 1.3 | 41.6 | 26.7 | 36.1 | 52.4 | 9 | 14.7 | 26.7 | 63.9 | 33.8 | 23.5 | -0.8 | 17.9 | 55.1 | 107 to 108 | – |
| CCOc1ccc(/N=N/c2sc(Nc3cccc(Nc4nc(C)c(/N=N/c5ccc(OCC)cc5)s4)c3)nc2C)cc1 [5b, N^1,N^3-bis(5-((4-ethoxyphenyl)diazinyl)-4-methylthiazol-2-yl)benzene-1,3-diamine] | – | – | 2.6 | -5.1 | 1.1 | 10.6 | 10.6 | -15.5 | 4.3 | 1 | 2.2 | 12.9 | 17.1 | 4.4 | -6.8 | -0.2 | 1.6 | 0.8 | 116 to 118 | – |
| Clc1ccc(-c2csc(Nc3cccc(Nc4nc(-c5ccc(Cl)cc5)cs4)c3)n2)cc1 [6c, N^1,N^3-bis(4–(4-chlorophenyl)thiazol-2-yl)benzene-1,3-diamine] | 27.3 | 1.85 | 7.3 | -7.3 | 8.3 | 10.1 | 9.8 | 3.9 | 13.4 | 16.7 | 29.5 | 13.2 | 18.3 | 4 | -2.1 | 1.4 | -7.1 | 2.9 | 100 to 101 | – |
| NC(=S)Nc1cccc(NC(N)=S)c1 [compound 2, 1,1′-(1,3-phenylene)bis(thiourea)] | – | – | – | -36.7 | -25.8 | 1.5 | 8.3 | – | 13.5 | -3.8 | -5 | 2.8 | 13.2 | 9.8 | -9.7 | -7.3 | 2.7 | 8.6 | – | inhibition at 10 µM (OVCAR-3): 11.5%; inhibition at 10 µM (SK-MEL-2): -11.7% |
| S=C(Nc1ccccc1)Nc1cccc(NC(=S)Nc2ccccc2)c1 [compound 7, 1,1′-(1,3-phenylene)bis(3-phenylthiourea)] | – | – | – | -37.6 | -29 | -5.7 | 8.5 | – | -8.4 | -16.6 | 3.9 | -6.3 | 6.3 | 1.2 | -16.5 | -17.5 | -2.8 | 1.5 | – | inhibition at 10 µM (OVCAR-3): -6.1%; inhibition at 10 µM (SK-MEL-2): -35.3% |
